Results on one compound are retold here after US6451818B1, “Therapeutic use of 1,6-dimethyl-8β-hydroxymethyl-10α-methoxyergoline” (Aventis Pharma S.A., priority 1998, dated 2002).

The test system of experiment [1] is trophic factor-deprived motor neurons. In words: Neuronal death in motor-neuron-enriched cultures in the absence of trophic factor. The experiment is classed as cell-based. On the procedure: (§1) The motor-neuron-enriched cultures are prepared using the centrifugation method which was described by R. L. SCHNAAR and A. E. SCHAFFNER, J. Neurosci., 1, 204-217 (1981) and modified by W. CAMU and C. E. HENDERSON, J. Neurosci. Methods, 44, 59-70 (1992). The motor neurons are spread, at a density of 2500 cells per plate, on 35 mm culture plates which have previously been coated with laminin/ornithine in accordance with the method of A. G. ESTEVEZ et al., J. Neurosci., 18 (3), 923-931 (1998). The cultures are then maintained in L15 medium (GIBCO BRL) containing sodium bicarbonate (22 mM), conalbumin (0.1 mg/ml), putrescine (0.1 mM), insulin (5 μg/ml), sodium selenite ([…]), glucose (20 mM), progesterone (21 nM), penicillin (100 IU/ml) and streptomycin (100 μg/ml).
More than 70% of the cells are immunoreactive for the neurotrophin p75 receptor and the Islet ½ markers for spinal motor neurons. Approximately 70% of the motor neurons die by apoptosis 24 hours after the spreading if the culture is performed in the absence of a trophic factor. […]
(§2) The number of motor neurons is estimated by counting the labelled cells in an area of 0.4-1 cm^2 under a microscope which enlarges 200 times. In all cases, the values are expressed as a percentage of the number of motor neurons which are present in cultures maintained using trophic factors. […]

In experiment [2] the test system is motor neurons (astrocyte-conditioned medium). Put plainly: Motor neuron survival in medium conditioned by treated spinal astrocyte monolayers (neurotrophic activity produced by spinal astrocytes). The note with it: % of motor neurons in cultures with trophic factors. It is filed as cell-based, rat. On the procedure: as §1
The astrocytes are obtained from young, one-day-old rats using the slightly modified method of R. P. SANETO and J. DE VELLIS as described in Neurochemistry a practical approach (A. J. TURNER and H. A. St JOHN) IRL Press, Oxford-Washington D.C., pp. 27-63. The spinal cords are dissected out under sterile conditions and freed of meninges and dorsal ganglia. Five to ten spinal cords are transferred into PBS (phosphate buffered saline) and cut before being incubated at 37° C. for 25 minutes in PBS to which 0.25% trypsin has been added. The enzymatic treatment is stopped by adding 10 ml of Dulbecco's modified Eagle medium (DMEM), to which 10% fetal calf serum (FCS) has been added, and the cells are collected by centrifugation. Another step of mechanical dissociation is performed using the end of a 1 ml pipette. The cells are spread, at a density of 1.5-2×10^6 cells per 25 cm^2 of culture medium, in DMEM containing 10% FCS. After 2 days in vitro, the cultures are fed every day. […]
as §2

Experiment [3] relates to motor neurons (co-cultures of astrocyte monolayers and motor neurons). Put plainly: Motor neuron survival, co-cultures of astrocyte monolayers and motor neurons. It is filed as cell-based, rat. The note with it: vehicle alone 43.9 ± 4. On the procedure:
as §1
(§3) The astrocytes are obtained from young, one-day-old rats using the slightly modified method of R. P. SANETO and J. DE VELLIS as described in Neurochemistry a practical approach (A. J. TURNER and H. A. St JOHN) IRL Press, Oxford-Washington D.C., pp. 27-63. The spinal cords are dissected out under sterile conditions and freed of meninges and dorsal ganglia. Five to ten spinal cords are transferred into PBS (phosphate buffered saline) and cut before being incubated at 37° C. for 25 minutes in PBS to which 0.25% trypsin has been added. The enzymatic treatment is stopped by adding 10 ml of Dulbecco's modified Eagle medium (DMEM), to which 10% fetal calf serum (FCS) has been added, and the cells are collected by centrifugation. Another step of mechanical dissociation is performed using the end of a 1 ml pipette. The cells are spread, at a density of 1.5-2×10^6 cells per 25 cm^2 of culture medium, in DMEM containing 10% FCS. After 2 days in vitro, the cultures are fed every day. When a visible monolayer of cells has been completed, the cultures are stirred at 250 rpm for 48 hours and, on the following day, the monolayers are treated with cytosine arabinoside (10^−5 M) for 48 hours. The astrocyte monolayers are then amplified to a density of five on 35 mm culture plates for initially 25 cm^2 culture flasks.
The spinal astrocyte cultures consist, to an extent of more than 98%, of flat, polygonal cells which are immunoreactive for the glial fibrillar acid protein (GFAP). The monolayers are exposed to the product to be tested and then incubated with the motor neuron medium in order to obtain a conditioned culture medium. […]
as §2

The test system of experiment [4] is motor neurons (astrocyte/motor neuron co-cultures). Put plainly: Neuronal survival in astrocyte/motor neuron co-cultures. The experiment is classed as cell-based, rat. The note with it: for % of labelled motor neurons, very large motor neurons: vehicle alone = 100 ± 2.8; for % of labelled motor neurons, all the motor neurons: vehicle alone = 100 ± 9.4. On the procedure:
as §1, §3
The cells are fixed in 4% paraformaldehyde and 0.1% glutaraldehyde in PBS (pH 7.4 and at 4° C. for 15 minutes) and in a cold methanolic solution. The cultures are then washed and the nonspecific sites are blocked with 10% goat serum and 2% bovine serum albumin (BSA) in PBS and treated for immunochemistry using antibodies against the p75 weak affinity neurotrophin receptor or a 200 kD neurofilament protein (Amersham) using the manufacturer's instructions and applying the avidin-biotin-DAB/hydrogen peroxide enhancement reaction.
The astrocytes are treated with 1,6-dimethyl-8β-hydroxymethyl-10α-methoxyergoline in the following manner: the product is dissolved in methanol, sterilized by filtration and used immediately after preparation. The treatment which is applied to the enriched motor neuron cultures is effected by adding aliquots of solutions of the products to be tested to the L15 medium by spreading. The astrocyte monolayers are exposed to the vehicle or to the solutions of the compound to be tested for 24 hours and at different concentrations. […]
as §2

With `CO[C@]12C[C@@H](CO)CN(C)[C@@H]1Cc1cn(C)c3cccc2c13` [1,6-Dimethyl-8β-hydroxymethyl-10α-methoxyergoline], the “Neuronal arborization and cell morphology” value in experiment [1] was “remain well preserved”. Also, the “Increase of the survival of trophic factor-deprived motor neurons” value in experiment [1] (p<0.001) is 60%. For the same compound, the “Motor neuron survival in %” value in experiment [2] (dilution of the astrocyte-conditioned medium 1:4, vehicle alone 59.9 ± 8) came to 90.6 ± 4.9 %; in experiment [2] (dilution of the astrocyte-conditioned medium 1:10, vehicle alone 45.4 ± 4.2), 74.8 ± 6.3 %; in experiment [2] (dilution of the astrocyte-conditioned medium 1:50, vehicle alone 36.9 ± 3.2), 49.6 ± 5.3 %; in experiment [3] (tested product 1 nM), 42.5 ± 4%; in experiment [3] (tested product 10 nM) it was 48.9 ± 3 %; in experiment [3] (tested product 100 nM) it was 57.4 ± 4 %. Besides, the “Motor neuron survival in %” value in experiment [3] (tested product 1 μM) is 68.7 ± 8 %. Moreover, the results for the “% of labelled motor neurons, very large motor neurons” value in experiment [4] (0.1 μM) and in experiment [4] (1 μM) were 122.6 ± 8.2 % and 117 ± 5.6 %, respectively. In addition, the “% of labelled motor neurons, all the motor neurons” value in experiment [4] (0.1 μM) turned out to be 123 ± 9.3 %; in experiment [4] (1 μM), 158.9 ± 32 %; in experiment [4] (10 μM) it was 137.5 ± 19 %.
